Laboratory results: article PMC4109836, “Analysis of the co-operative interaction between the allosterically regulated proteins GK and GKRP using tryptophan fluorescence” (Biochemical Journal, 2014)
Residue numbers refer to the chain shown, from its start.

Assays:
GKRP-WT = target: T1, GKRP-WT (Homo sapiens, UniProt Q14397); experiment: Ligand binding to free GKRP-WT measured by TF of GKRP; settings: ligand alone
T1 construct: FLAG; made in house; host or cells: Escherichia coli
T1 sequence (Q14397 1-625): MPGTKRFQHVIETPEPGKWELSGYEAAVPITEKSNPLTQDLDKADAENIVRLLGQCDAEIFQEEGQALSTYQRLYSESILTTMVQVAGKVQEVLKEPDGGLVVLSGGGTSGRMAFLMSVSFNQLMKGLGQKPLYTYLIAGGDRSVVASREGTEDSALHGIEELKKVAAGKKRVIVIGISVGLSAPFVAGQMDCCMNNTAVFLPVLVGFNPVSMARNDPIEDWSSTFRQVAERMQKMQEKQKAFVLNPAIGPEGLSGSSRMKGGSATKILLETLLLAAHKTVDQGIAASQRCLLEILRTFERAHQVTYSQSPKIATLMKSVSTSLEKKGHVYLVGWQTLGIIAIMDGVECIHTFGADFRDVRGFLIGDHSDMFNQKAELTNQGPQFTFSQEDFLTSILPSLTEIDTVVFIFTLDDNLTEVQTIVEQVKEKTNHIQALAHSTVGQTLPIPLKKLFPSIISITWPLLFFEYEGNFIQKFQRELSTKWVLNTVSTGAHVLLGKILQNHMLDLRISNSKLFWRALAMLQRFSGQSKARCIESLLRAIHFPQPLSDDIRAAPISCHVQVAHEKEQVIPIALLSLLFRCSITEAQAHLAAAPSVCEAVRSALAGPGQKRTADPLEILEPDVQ

[1] = target: T2, hGKRP (0.3 μM)–GK-W99R/W167F/W257F (1 μM) complex, GKRP-P446L (Homo sapiens, UniProt P35557+Q14397, P446L/W167F/W257F/W99R); experiment: Ligand binding by / disassembly of GKRP-P446L–GK-W99R/W167F/W257F complex by TF of hGKRP; settings: ligand titration of 3:1 GK–GKRP-P446L complex, 20°C
T2 construct: FLAG; GST (cleaved yes); made in house; host or cells: Escherichia coli
T2 sequence (Q14397 1-625 P446L): T1 sequence (Q14397 1-625) with P446L
T2 sequence (P35557 1-465 W99R/W167F/W257F): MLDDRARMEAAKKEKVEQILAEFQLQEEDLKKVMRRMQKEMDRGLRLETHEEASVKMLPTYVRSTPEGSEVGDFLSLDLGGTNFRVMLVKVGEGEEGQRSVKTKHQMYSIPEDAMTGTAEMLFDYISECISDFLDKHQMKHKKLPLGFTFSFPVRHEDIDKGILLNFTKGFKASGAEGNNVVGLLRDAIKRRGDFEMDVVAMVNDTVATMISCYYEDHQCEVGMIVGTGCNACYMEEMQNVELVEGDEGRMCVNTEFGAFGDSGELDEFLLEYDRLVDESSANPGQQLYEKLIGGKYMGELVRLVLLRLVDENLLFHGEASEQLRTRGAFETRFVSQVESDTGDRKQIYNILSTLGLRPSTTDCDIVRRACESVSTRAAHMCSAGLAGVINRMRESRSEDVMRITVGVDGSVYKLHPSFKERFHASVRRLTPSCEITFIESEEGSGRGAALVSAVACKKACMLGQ
Procedure: Spectra were measured with a Fluorolog-3-21 Jobin-Yvon Spex Instrument SA equipped with a 450 W Xenon lamp for excitation and a cooled R2658P Hamamatsu photomultiplier tube for detection. For all measurements, 90° geometry was employed and 295 nm excitation wavelengths were used to observe fluorescence emission in the 300–500 nm range. For TF, spectra slit width was set to provide a bandpath of 3 nm for excitation and 3 nm for emission. Spectra were corrected for instrumental response using Spex instrument software. A thermostatically controlled cell holder maintained sample temperature at 20°C. A thermocoupler was used to measure sample temperature. The buffer used contained 20 mM phosphate, 50 mM KCl, 1 mM EDTA and 1 mM DTT (pH 7.2).
Fluorescence data were obtained via the stepwise addition of the appropriate amount of non-fluorescent GK-W99R/W167F/W257F to GKRP in a fluorescence cuvette. […] The change in GKRP protein fluorescence during titration was also measured using time-dependent scans. A manual procedure was used such that a typical titration with 10–12 additions required 20–25 min to perform. The same buffer as described above was routinely used unless stated otherwise. The bandpath was 0.5 nm at 295 nm for excitation and 12 nm at 340 nm for emission. […] For some graphical presentations the linear form of the Hill equation was used: log[F/(Fsat−F)]=H log x−H log KD [46].

GK-W99R/W167F/W257F [2] = target: T3, GK-W99R/W167F/W257F (Homo sapiens, UniProt P35557, W167F/W257F/W99R); experiment: Glucose binding to unbound GK-W99R/W167F/W257F
T3 construct: GST (cleaved yes); made in house; host or cells: Escherichia coli
T3 sequence (P35557 1-465 W99R/W167F/W257F): T2 sequence (P35557 1-465 W99R/W167F/W257F)

GK-W99R/W167F/W257F [3] = target: T3, GK-W99R/W167F/W257F; parameters: method as in ref 4 (a number printed in a supplementary file, which may have a reference list of its own: not looked up in the article's list); settings: cited from earlier work

OC[C@H]1OC(O)[C@H](O)[C@@H](O)[C@@H]1O (stereo partly drawn) [D-Glucose, D-glucose]
ΔF (relative fluorescence change at 340 nm) (GKRP-WT; 0.3 μM GKRP-WT, 20°C): 0 | effect on the TF signal of GKRP-WT (GKRP-WT): no effect | H [1]: 1 | Kd (GK-W99R/W167F/W257F [2]): 5 mM | H (glucose) (GK-W99R/W167F/W257F [3]): 1.45 | glucose S0.5 (GK-W99R/W167F/W257F [3]): 4.8 mM
